# What was measured:
# Type in all cases: functional, cell-based
# Conditions in all cases: Mus musculus, N2a
# [1] = Effect on the uptake of [3H]5-HT into differentiated N-2a cells.
# [2] = Inhibition of [3H]- Thymidine incorporation into the DNA of differentiated neuroblastoma clone N-2a cells
# [3] = Inhibition of [3H]- Thymidine incorporation into the DNA of differentiated neuroblastoma clone N-2a cells.
SMILES,IC50 [1] [µM],IC50 [2] [µM],IC50 [3] [µM]
NCCc1c[nH]c2cc(O)c(O)cc12,17.8,92,
CN1CC(=O)NC1=N.NCCc1c[nH]c2cc(O)c(O)c(F)c12,0.55,,117
CN1CC(=O)NC1=N.NCCc1c[nH]c2c(F)c(O)c(O)cc12,0.76,,125
CN1CC(=O)NC1=N.NCCc1c[nH]c2c(F)c(O)c(O)c(F)c12,1.36,,135
